Measured values taken from patent publication US20040241755A1, “Human cell assay to determine effect of sample compounds on Col2 enhancer expression” (Pfizer Inc., priority 2003, published 2004).

Tests used:
Format in all cases: cell-based, human
[1] = test system: 48 bp Col2a1 enhancer; test: 48 bp Col2a1 enhancer luciferase reporter transfection assay in SW1353 cells; settings: for relief of cytokine mediated inhibition of enhancer expression by co-treatment: co-treatment with TNFα or IL-1β, SW1353 cells; for reduction of enhancer driven luciferase expression: 10 ng/ml; for effect on Sox9 activity / responsiveness of SW1353 cells transfected with the 48 bp Col2a1 enhancer: concentration not given, data not shown
Experimental: Reagents were obtained from Invitrogen unless otherwise noted. SW1353 human chondrosarcoma cells (ATCC #HTB-94) were grown in DMEM 10% FBS 10 ug/ml Gentamicin and passaged (2 times a week) using with 0.25% Trypsin-EDTA.
Cells were plated at ˜10^6 cells per flask into a T-75 in 10 ml growth media or an equivalent based on culture vessel surface area, 24 hours prior to transfection. For each transfection, 24 ul of Transit (PanVera) was diluted into 250 ul OptiMEM and 12 ug of reporter plasmid Col2a1 enhancer construct (48 bp Col2a1, was added. After 15-30 minute incubation, growth media was removed from the cells, and the DNA-transfection reagent complexes diluted to a final volume of 10 ml with OptiMEM and added to the cells. Transfection media was replaced with fresh media after 7 hours. 24 hours post transfection the cells were treated with media alone or indicated factors. Cells were harvested 48 hours post-transfection and luciferase activity measured using the LucLite and the TopCount LSC plate reader (Packard).
We analyzed the activity of the 48 bp Col2a1 enhancer construct (48 bp Col2a1) in transfected SW1353 cells. SW1353 cells were transfected with a constant amount of reporter (0.25 ug), with or without increasing amounts of the Sox9 expression construct or empty vector.

[2] = test system: Sox9 mRNA; test: Sox9 mRNA expression in SW1353 cells by real time quantitative PCR (TaqMan); settings: 48 hours, relative to GAPDH
Experimental: RNA was prepared from 75 cm dishes using RNeasy Kits with DNAse treatment (Qiagen) according to the manufacturer's protocol except a second application of DNase was used. cDNA was prepared from 10-20 ul of RNA (1-4 ug) using random hexamer primers and PE Biosystems Reverse Transcription reagents. Taqman reactions used 8 ul cDNA and 2× PE Universal PCR Master Mix (PE Biosystems), 900 nM PCR primers and 200 nM FAM-TAMRA probe. Reactions (50 ul) were cycled and quantified using the PE 5700 with standard conditions for 45 cycles. The data was analyzed using GeneAmp5700 software Mix (PE Biosystems), adjusting the threshold to linear range for all samples. The ΔCt is calculated by subtracting normalizer (GAPDH) from corresponding gene-specific values. The ΔΔCt is calculated by subtracting treated ΔCt from control ΔCt. Fold induction is determined by calculating 2^ΔΔCt. Data is reported as % increase over control sample.
The effect of chondrocyte growth factors as well as inhibitory cytokines on the expression of Sox9 RNA in SW1353 cells using real time quantitative PCR (TaqMan, P E Applied Biosystems) was determined. Cells were cultured and treated with growth factors or cytokines as described above. After 48 hours cells were harvested and RNA prepared. A custom Sox9 primer probe set was validated by an efficiency plot over several logs and relative Sox 9 expression was quantified relative to GAPDH.

[3] = test system: IL-8; test: Induction of IL-8 expression in SW1353 cells; settings: for stimulation of expression of IL-8: 10 ng/ml
Experimental: SW1353 cells were transfected with the 48 bp Col2a1 reporter and then treated with vehicle, TNFα (10 ng/ml) or IL-1β (10 ng/ml) (FIG. 2A).
The effect of increasing IL-1β doses on the two response was determined. […] Therefore, SW1353 cells appear to respond to a dynamic range of IL-1β levels with selective functional responses, making them potentially useful in models of both osteoarthritis and rheumatoid diseases.

[4] = test system: matrix metalloproteases; test: Stimulation of matrix metalloprotease expression in SW1353 cells; settings: data not shown

## FGF-1: pro-chondrogenic fibroblast growth factor
[1]
  relief of cytokine mediated inhibition of enhancer expression by co-treatment: partially relieved
[2]
  increase in expression of Sox9 mRNA: ~2 fold

## FGF-2: pro-chondrogenic fibroblast growth factor
[1]
  relief of cytokine mediated inhibition of enhancer expression by co-treatment: partially relieved
[2]
  increase in expression of Sox9 mRNA: approximately 1.5 fold

## IL-1β: pro-inflammatory cytokine
[3]
  stimulation of expression of IL-8: stimulate
[3]; IL-1 concentrations below 20 pg/ml
  induction of IL-8: not detected
[1]; transfected SW1353 cells
  reduction of enhancer driven luciferase expression: ~50%
  concentration giving maximal inhibition (repression) of Col2 enhancer activity: 20 pg/mL
[1]; 0.1-1 pg/ml, transfected SW1353 cells
  stimulation of Col2 enhancer activity at very low levels: about 150%
[4]
  stimulation of expression of matrix metalloproteases: stimulate
[2]
  decrease in Sox9 expression: 60%

## PTHrP: parathyroid hormone-related peptide
[1]
  effect on Sox9 activity / responsiveness of SW1353 cells transfected with the 48 bp Col2a1 enhancer: not seen an effect

## TGFα: growth factor to which SW1353 cells appear unresponsive
[1]
  effect on Sox9 activity / responsiveness of SW1353 cells transfected with the 48 bp Col2a1 enhancer: unresponsive

## TNFα
[3]
  stimulation of expression of IL-8: stimulate
[1]; transfected SW1353 cells
  reduction of enhancer driven luciferase expression: approximately 60%
[4]
  stimulation of expression of matrix metalloproteases: stimulate
[2]
  decrease in Sox9 expression: 45%

B1: BMP-6: BMP growth factor (protein, UniProt P22004 375-513, looked up)
Bone morphogenetic protein 6: SASSRRRQQSRNRSTQSQDVARVSSASDYNSSELKTACRKHELYVSFQDLGWQDWIIAPKGYAANYCDGECSFPLNAHMNATNHAIVQTLVHLMNPEYVPKPCCAPTKLNAISVLYFDDNSNVILKKYRNMVVRACGCH
[1]
  effect on Sox9 activity / responsiveness of SW1353 cells transfected with the 48 bp Col2a1 enhancer: unresponsive

B2: BMP-4: BMP growth factor (protein, UniProt P12644 293-408, looked up)
Bone morphogenetic protein 4: SPKHHSQRARKKNKNCRRHSLYVDFSDVGWNDWIVAPPGYQAFYCHGDCPFPLADHLNSTNHAIVQTLVNSVNSSIPKACCVPTELSAISMLYLDEYDKVVLKNYQEMVVEGCGCR
[1]
  effect on Sox9 activity / responsiveness of SW1353 cells transfected with the 48 bp Col2a1 enhancer: unresponsive

B3: FGF-7: fibroblast growth factor which signals exclusively through the epithelial-cell restricted FGFRIIIb receptor (protein, UniProt P21781 32-194, looked up)
Fibroblast growth factor 7: CNDMTPEQMATNVNCSSPERHTRSYDYMEGGDIRVRRLFCRTQWYLRIDKRGKVKGTQEMKNNYNIMEIRTVAVGIVAIKGVESEFYLAMNKEGKLYAKKECNEDCNFKELILENHYNTYASAKWTHNGGEMFVALNQKGIPVRGKKTKKEQKTAHFLPMAIT
[1]; 200 ng/ml added to transfected SW1353 cultures
  increase in expression of the 48 bp Col2a1 enhancer: no effect
